Here are results for 20 compounds from US10167279B2 (NOVARTIS AG, priority 2014, dated 2019).

The structures appear in SMILES notation.

C-Raf FL, sequence (P04049 whole entry Y340E/Y341E): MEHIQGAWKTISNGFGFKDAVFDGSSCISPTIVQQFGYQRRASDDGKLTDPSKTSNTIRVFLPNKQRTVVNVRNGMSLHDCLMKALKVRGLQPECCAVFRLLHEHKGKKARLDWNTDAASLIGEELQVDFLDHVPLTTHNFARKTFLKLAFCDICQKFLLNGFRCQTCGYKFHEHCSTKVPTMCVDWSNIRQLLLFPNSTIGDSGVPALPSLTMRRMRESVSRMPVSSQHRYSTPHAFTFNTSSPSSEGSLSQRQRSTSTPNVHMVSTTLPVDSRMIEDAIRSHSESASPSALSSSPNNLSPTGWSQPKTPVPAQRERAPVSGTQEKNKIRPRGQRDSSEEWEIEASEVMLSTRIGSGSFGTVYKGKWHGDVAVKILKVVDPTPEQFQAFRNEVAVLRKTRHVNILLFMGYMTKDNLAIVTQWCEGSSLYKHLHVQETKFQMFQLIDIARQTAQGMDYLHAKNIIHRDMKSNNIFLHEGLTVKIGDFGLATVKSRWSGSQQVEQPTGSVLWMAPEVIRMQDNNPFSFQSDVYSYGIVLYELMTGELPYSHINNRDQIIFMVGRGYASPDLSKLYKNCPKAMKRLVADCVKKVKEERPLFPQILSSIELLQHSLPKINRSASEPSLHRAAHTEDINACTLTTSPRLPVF
C-Raf FL, sequence (P63104 whole entry partner): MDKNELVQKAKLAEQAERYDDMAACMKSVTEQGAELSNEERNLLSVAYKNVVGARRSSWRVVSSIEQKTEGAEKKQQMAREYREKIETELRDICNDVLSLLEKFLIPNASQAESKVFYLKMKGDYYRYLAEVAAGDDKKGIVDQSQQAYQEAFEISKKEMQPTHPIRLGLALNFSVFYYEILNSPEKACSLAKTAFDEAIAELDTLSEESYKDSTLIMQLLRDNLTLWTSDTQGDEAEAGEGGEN

In the experiment the target is C-Raf FL (Homo sapiens (Human), UniProt P04049, Y340E/Y341E). The experiment is described as follows: In vitro Raf activity determination (Alpha Screen, phospho-MEK), C-Raf FL (full length, Y340E/Y341E). To be noted: ATP 1 μM; 60 min pre-incubation; 1 hour reaction; column head does not say FL or TR. Format: biochemical. The method in brief:
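Read-out is AlphaScreen luminescence using rabbit anti-p-MEK with protein A beads after EDTA stop, with IC50 fitted by non-linear regression. Reaction: Sf9-derived C-Raf plus biotinylated E. coli MEK1 K97R substrate, pH 7.5 Tris/MgCl2/DTT buffer, compound preincubated 60 min at room temperature.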
For the compound `Cc1ccc(NC(=O)c2ccnc(C(C)(F)F)c2)cc1-c1cc2c(c(C3CCOCC3)c1)NC(=O)C(C)(CO)O2` (centres unmarked) [Example 191, 2-(1,1-difluoroethyl)-N-(3-(2-(hydroxymethyl)-2-methyl-3-oxo-5-(tetrahydro-2H-pyran-4-yl)-3,4-dihydro-2H-benzo [b][1,4]oxazin-7-yl)-4-methylphenyl) isonicotinamide], the midpoint of inhibition, the IC50, lay at 0.1 nM.

With `Cc1ccc(NC(=O)c2cc(C(F)(F)F)ccn2)cc1-c1cc2c(c(C3CCOCC3)c1)NC(=O)C(C)(CO)O2` (centres unmarked) [Example 192, N-(3-(2-(hydroxymethyl)-2-methyl-3-oxo-5-(tetrahydro-2H-pyran-4-yl)-3,4-dihydro-2H-benzo [b][1,4]oxazin-7-yl)-4-methylphenyl)-4-(trifluoromethyl) picolinamide], the IC50 (in general, the concentration at which inhibition is half-maximal) is 0.3 nM. With `Cc1ccc(NC(=O)c2cc(C(F)(F)F)cnn2)cc1-c1cc2c(c(C3CCOCC3)c1)NC(=O)C(C)(CO)O2` (centres unmarked) [Example 195, N-(3-(2-(hydroxymethyl)-2-methyl-3-oxo-5-(tetrahydro-2H-pyran-4-yl)-3,4-dihydro-2H-benzo [b][1,4]oxazin-7-yl)-4-methylphenyl)-5-(trifluoromethyl) pyridazine-3-carboxamide] the figure was 0.03 nM.

In turn, `Cc1ccc(NC(=O)c2ccnc(C(F)(F)F)c2)cc1-c1cc2c(c(C3CCOCC3)c1)OC(C)(C)C(=O)N2` [Example 196, N-(3-(2,2-dimethyl-3-oxo-8-(tetrahydro-2H-pyran-4-yl)-3,4-dihydro-2H-benzo[b][1,4]oxazin-6-yl)-4-methylphenyl)-2-(trifluoromethyl) isonicotinamide] gave an IC50 of 0.4 nM. In the case of `Cc1ccc(NC(=O)c2ccnc(C(C)(F)F)c2)cc1-c1cc2c(c(C3CCOCC3)c1)OC(C)(C)C(=O)N2` [Example 197, 2-(1,1-difluoroethyl)-N-(3-(2,2-dimethyl-3-oxo-8-(tetrahydro-2H-pyran-4-yl)-3,4-dihydro-2H-benzo[b][1,4]oxazin-6-yl)-4-methylphenyl) isonicotinamide] it was 0.4 nM; in that of `Cc1ccc(NC(=O)c2cc(C(F)(F)F)ccn2)cc1-c1cc2c(c(C3CCOCC3)c1)OC(C)(C)C(=O)N2` [Example 199, N-(3-(2,2-dimethyl-3-oxo-8-(tetrahydro-2H-pyran-4-yl)-3,4-dihydro-2H-benzo[b][1,4]oxazin-6-yl)-4-methylphenyl)-4-(trifluoromethyl) picolinamide], 1 nM. With `Cc1ccc(NC(=O)c2ccnc(C(F)(F)F)c2)cc1-c1cc2c(c(C3CCOCC3)c1)OC(C)(CO)C(=O)N2` (centres unmarked) [Example 200, N-(3-(2-(hydroxymethyl)-2-methyl-3-oxo-8-(tetrahydro-2H-pyran-4-yl)-3,4-dihydro-2H-benzo[b][1,4]oxazin-6-yl)-4-methylphenyl)-2-(trifluoromethyl) isonicotinamide] the figure was 0.5 nM; with `Cc1ccc(NC(=O)c2cnnc(C(F)(F)F)c2)cc1-c1cc2c(c(C3CCOCC3)c1)OC(C)(CO)C(=O)N2` (centres unmarked) [Example 201, N-(3-(2-(hydroxymethyl)-2-methyl-3-oxo-8-(tetrahydro-2H-pyran-4-yl)-3,4-dihydro-2H-benzo[b][1,4]oxazin-6-yl)-4-methylphenyl)-6-(trifluoromethyl) pyridazine-4-carboxamide], 0.1 nM. `Cc1ccc(NC(=O)c2cc(C(F)(F)F)ccn2)cc1-c1cc2c(c(C3CCOCC3)c1)OC(C)(CO)C(=O)N2` (centres unmarked) [Example 202, N-(3-(2-(hydroxymethyl)-2-methyl-3-oxo-8-(tetrahydro-2H-pyran-4-yl)-3,4-dihydro-2H-benzo[b][1,4]oxazin-6-yl)-4-methylphenyl)-4-(trifluoromethyl) picolinamide] displayed an IC50 of 0.3 nM.

Consider `Cc1ccc(NC(=O)c2ccnc(C(F)(F)F)c2)cc1-c1cc(OCCO)nc(C2(C)CCOCC2)c1` [Example 205, N-(3-(2-(2-hydroxyethoxy)-6-(4-methyltetrahydro-2H-pyran-4-yl)pyridin-4-yl)-4-methylphenyl)-2-(trifluoromethyl) isonicotinamide], for which half-maximal inhibition (IC50) was put at 0.4 nM. In the case of `Cc1ccc(NC(=O)c2ccnc(C(C)(F)F)c2)cc1-c1cc(OCCO)nc(C2(C)CCOCC2)c1` [Example 206, 2-(1,1-difluoroethyl)-N-(3-(2-(2-hydroxyethoxy)-6-(4-methyltetrahydro-2H-pyran-4-yl)pyridin-4-yl)-4-methylphenyl) isonicotinamide] it was 0.4 nM. With `Cc1ccc(NC(=O)c2cnnc(C(F)(F)F)c2)cc1-c1cc(OCCO)nc(C2(C)CCOCC2)c1` [Example 207, N-(3-(2-(2-hydroxyethoxy)-6-(4-methyltetrahydro-2H-pyran-4-yl)pyridin-4-yl)-4-methylphenyl)-6-(trifluoromethyl) pyridazine-4-carboxamide] the figure was 0.1 nM; with `Cc1ccc(NC(=O)c2ccnc(C(C)(C)C#N)c2)cc1-c1cc(OCCO)nc(C2(C)CCOCC2)c1` [Example 208, 2-(2-cyanopropan-2-yl)-N-(3-(2-(2-hydroxyethoxy)-6-(4-methyltetrahydro-2H-pyran-4-yl)pyridin-4-yl)-4-methylphenyl) isonicotinamide], 0.5 nM. For the compound `Cc1ccc(NC(=O)c2cc(C(F)(F)F)ccn2)cc1-c1cc(OCCO)nc(C2(C)CCOCC2)c1` [Example 209, N-(3-(2-(2-hydroxyethoxy)-6-(4-methyltetrahydro-2H-pyran-4-yl)pyridin-4-yl)-4-methylphenyl)-4-(trifluoromethyl) picolinamide], half-maximal inhibition (IC50) required 0.2 nM.

The compound `Cc1ccc(NC(=O)c2ccnc(C(F)(F)F)c2)cc1-c1cc(OCCO)nc(C2(CF)CCOCC2)c1` [Example 210] displayed an IC50 of 0.3 nM. With `Cc1ccc(NC(=O)c2ccnc(C(C)(F)F)c2)cc1-c1cc(OCCO)nc(C2(CF)CCOCC2)c1` [Example 211, 2-(1,1-difluoroethyl)-N-(3-(2-(4-(fluoromethyl)tetrahydro-2H-pyran-4-yl)-6-(2-hydroxyethoxy)pyridin-4-yl)-4-methylphenyl) isonicotinamide] the figure was 0.3 nM; with `Cc1ccc(NC(=O)c2cnnc(C(F)(F)F)c2)cc1-c1cc(OCCO)nc(C2(CF)CCOCC2)c1` [Example 212, N-(3-(2-(4-(fluoromethyl)tetrahydro-2H-pyran-4-yl)-6-(2-hydroxyethoxy)pyridin-4-yl)-4-methylphenyl)-6-(trifluoromethyl) pyridazine-4-carboxamide], 0.08 nM; with `Cc1ccc(NC(=O)c2ccnc(C(C)(C)C#N)c2)cc1-c1cc(OCCO)nc(C2(CF)CCOCC2)c1` [Example 213, 2-(2-cyanopropan-2-yl)-N-(3-(2-(4-(fluoromethyl)tetrahydro-2H-pyran-4-yl)-6-(2-hydroxyethoxy)pyridin-4-yl)-4-methylphenyl) isonicotinamide], 0.2 nM.

`Cc1ccc(NC(=O)c2cc(C(F)(F)F)ccn2)cc1-c1cc(OCCO)nc(C2(CF)CCOCC2)c1` [Example 214, N-(3-(2-(4-(fluoromethyl)tetrahydro-2H-pyran-4-yl)-6-(2-hydroxyethoxy)pyridin-4-yl)-4-methylphenyl)-4-(trifluoromethyl) picolinamide] showed an IC50 of 0.3 nM. In the case of `Cc1ccc(NC(=O)c2ccnc(C(F)(F)F)c2)cc1-c1cc(OCCO)nc(C2(CO)CCOCC2)c1` [Example 215] it was 0.1 nM.
